Among the data in patent publication US7517998B2, “Non nucleoside reverse transcriptase inhibitors” (priority 2004, dated 2009) are IC50 values, retold here.

The target of the first test is T1, K103NNY181C mutant reverse transcriptase (Human immunodeficiency virus type 1 group M subtype B, UniProt P04585, K690N/Y768C).
T1 construct: mutations that occur in the reverse transcriptase segment of the pol gene
Put plainly: Reverse transcriptase enzymatic assay (PicoGreen), K103N/Y181C mutant RT. Conditions: IC50 mut (nM), mutant (K103N/Y181C) reverse transcriptase, enzymatic assay of Example 24. The format is biochemical, HIV-1. As for the experimental part: The enzymatic assay employed is described as follows: The reverse transcriptase (RT) enzyme assay has been adapted to a 96-well microtiter plate format and uses PicoGreen™ as a fluorescent intercalator. More explicitly, the HIV-1 RT enzyme was thawed and appropriately diluted into Tris/HCl 50 mM pH 7.8 containing NaCl 60 mM, MgCl2.6H2O 2 mM, DTT 6 mM, GSH 2 mM and 0.02% w/v Chaps to give ≈10 nM enzyme. To 10 μL of this enzyme solution was added 10 μL of inhibitor solution (40 μM to 2.032 nM inhibitor in the same assay buffer as above containing 4% v/v DMSO). The plate was pre-incubated for 15 minutes at room temperature before proceeding to the next step. In this pre-incubation step, the highest and lowest inhibitor concentrations were 20 μM and 1.016 nM respectively and the concentration of DMSO was 2% v/v. Then the enzymatic reaction was initiated by addition of 20 μL of substrate solution. The final reaction mixture contained Tris/HCl 50 mM pH 7.8, NaCl 60 mM, MgCl2.6H2O 2 mM, DTT 6 mM, GSH 2 mM, CHAPS 0.02% w/v, DMSO 1% v/v, poly rC 45 nM, dG15 4.5 nM, dGTP 3.6 μM, and 2.5 nM enzyme. In this incubation step, the highest and lowest inhibitor concentrations were 10 μM and 0.508 nM respectively. After addition of the substrate cocktail, the plate was covered with a plastic seal and incubated for 50 minutes at 37° C. in a dry incubator. The reaction was then quenched by addition of 5 μL of EDTA 0.5 M. The plate was shaken for 30 seconds at medium speed and incubated for 5 minutes at room temperature. Then 160 μL of PicoGreen™ 1:400 dilution from commercial stock (diluted in Tris 20 mM pH 7.5 with EDTA 1 mM) was added and the plate was shaken for 30 seconds and incubated for 10 minutes at room temperature. The plate was then analyzed using a POLARstar Galaxy fluorometer (BMG Labtechnologies) with λex and λem of 485 nm and 520 nm respectively. Each well was read for 1.25 second. Each row contained at its extremities a blank and a control well.
Consider `CC(C)(C)c1ccc(-n2nnnc2SCC(=O)Nc2ccc(NC(=O)CCc3ccccc3)cc2Cl)c(Cl)c1` [Compound 7038], for which the IC50 amounted to 860 nM. As to `CC(C)(C)c1ccc(-n2nnnc2SCC(=O)Nc2ccc(NC(=O)Cc3cccc[n+]3[O-])cc2Cl)c(Cl)c1` [Compound 7047], the IC50 was determined as 43.5 nM. Same read-out and setting: with `CC(C)(C)c1ccc(-n2nnnc2SCC(=O)Nc2ccc(NC(=O)CC3CCCC3)cc2Cl)c(Cl)c1` [Compound 7023] the figure was 255 nM; with `CC(C)(C)c1ccc(-n2nnnc2SCC(=O)Nc2ccc(NC(=O)Cc3cccc([N+](=O)[O-])c3)cc2Cl)c(Cl)c1` [Compound 7017], 170 nM.

Still in this test, the particulars now being: IC50 mut, K103N/Y181C mutant reverse transcriptase, enzymatic assay of Example 24.
Consider `CC(C)(C#Cc1ccc(NC(=O)CSc2nnnn2-c2cc(C(F)(F)F)c(C3CC3)cc2Cl)c(Cl)c1)C(=O)O` [Compound 4211], for which the IC50 came to 482 nM. On the same count and under the same terms, the same measure for `CC(C)(C#Cc1ccc(NC(=O)CSc2nnnn2-c2cc(C(C)(C)C)cc(Br)c2Cl)c(Cl)c1)C(=O)O` [Compound 4219]: 97 nM; for `CC(C)(C#Cc1ccc(NC(=O)CSc2nnnn2-c2cc(C(F)(F)F)cc(Cl)c2Cl)c(Cl)c1)NC(=O)c1cc[n+]([O-])cc1` [Compound 4210]: 15.5 nM; for `CC(C)(C#Cc1ccc(NC(=O)CSc2nnnn2-c2cc(C(F)(F)F)cc(C3CC3)c2Cl)c(Cl)c1)OCCN1CCC(F)(F)C1` [Compound 4242]: 854 nM. `CC(C)(C)c1ccc(-n2nnnc2SCC(=O)Nc2ccc(C#CCN3CCOCC3)cc2Cl)c(Cl)c1` [Compound 4010]: the IC50 turned out to be 27 nM.

`CC(C)(C#Cc1ccc(NC(=O)CSc2nnnn2-c2ccc(C3CC3)cc2Cl)c(Cl)c1)OCCO` [Compound 4098] returned a 50% inhibitory concentration (IC50) of 16.5 nM. On the same count and under the same terms, the same measure for `CN(C)CCCNC(=O)C(C)(C)C#Cc1ccc(NC(=O)CSc2nnnn2-c2ccc(C3CC3)cc2Cl)c(Cl)c1` [Compound 4145]: 48 nM; for `CC(C)(C#Cc1ccc(NC(=O)CSc2nnnn2-c2cc(C(F)(F)F)ccc2Cl)c(Cl)c1)OCCN1CCCC1` [Compound 4142]: 50.5 nM; for `CN1CCN(C(=O)COC(C)(C)C#Cc2ccc(NC(=O)CSc3nnnn3-c3ccc(C(C)(C)C)cc3Cl)c(Cl)c2)CC1` [Compound 4023]: 64 nM. On the same count and under the same terms, with `CC(C)(C#Cc1ccc(NC(=O)CSc2nnnn2-c2ccc(C3CC3)cc2Cl)c(Cl)c1)NCc1ccccc1O` [Compound 4130] the figure was 43 nM; with `CCNC(=O)NC(C)(C)C#Cc1ccc(NC(=O)CSc2nnnn2-c2ccc(C3CC3)cc2Cl)c(Cl)c1` [Compound 4075], 20.5 nM. Same read-out and setting: with `CC(C)(N)C#Cc1ccc(NC(=O)CSc2nnnn2-c2cc(C3CC3)cc(C(F)(F)F)c2Cl)c(Cl)c1F` [Compound 4250] the figure was 51.5 nM; with `CN(C)CCNC(=O)COC(C)(C)C#Cc1ccc(NC(=O)CSc2nnnn2-c2ccc(C(C)(C)C)cc2Cl)c(Cl)c1` [Compound 4047], 66 nM. Turning to `CC(C)(C#Cc1ccc(NC(=O)CSc2nnnn2-c2cc(C(F)(F)F)ccc2Cl)c(Cl)c1)NC(=O)C1CC1` [Compound 4140], the half-inhibitory concentration (IC50) stood at 51 nM. `CC(C)(C#Cc1ccc(NC(=O)CSc2nnnn2-c2ccc(C(C)(C)C)cc2Cl)c(Cl)c1)OCC(=O)Nc1ccncc1` [Compound 4041]: the IC50 turned out to be 35 nM. The same measure, in the same setting: with `CC(C)(C#Cc1ccc(NC(=O)CSc2nnnn2-c2ccc(C3CC3)cc2Cl)c(Cl)c1F)OCCN1CCCC1` [Compound 4175] the figure was 67 nM; with `Cc1c(NC(=O)CSc2nnnn2-c2ccc(C3CC3)cc2Cl)ccc(C#CC(C)(C)NC(=O)c2cc[n+]([O-])cc2)c1F` [Compound 4178], 26 nM. In the case of `CC(CC(=O)O)NC(=O)COC(C)(C)C#Cc1ccc(NC(=O)CSc2nnnn2-c2ccc(C(C)(C)C)cc2Cl)c(Cl)c1` (centres unmarked) [Compound 4046], 23 nM corresponded to half-maximal inhibition (IC50).

Compound `CC(C)(N)C#Cc1ccc(NC(=O)CSc2nnnn2-c2cc(Br)ccc2Cl)c(Cl)c1` [Compound 4220] yielded a half-maximal inhibitory concentration (IC50) of 97.5 nM. Same read-out and setting: the same measure for `CC(C)(C#Cc1ccc(NC(=O)CSc2nnnn2-c2ccc(C(C)(C)C)cc2Cl)c(Cl)c1)OCC(=O)Nc1ccc(/C=C/C(=O)O)cc1` [Compound 4026]: 63 nM; for `Cc1ccc(-n2nnnc2SCC(=O)Nc2ccc(C#CC(C)(C)O)cc2Cl)c(Cl)c1C(F)(F)F` [Compound 4059]: 656 nM; for `CC(C)(C#Cc1ccc(NC(=O)CSc2nnnn2-c2cc(Br)ccc2Cl)c(Cl)c1)C(=O)O` [Compound 4218]: 31.5 nM. Same read-out and setting: with `CN1CCN(CC#Cc2ccc(NC(=O)CSc3nnnn3-c3ccc(C(C)(C)C)cc3Cl)c(Cl)c2)CC1` [Compound 4015] the figure was 40 nM.

The test is the same for the next values; noted with them: IC50 mut, mutant reverse transcriptase, enzymatic assay of Example 24.
`CC(C)(C)c1ccc(-n2nnnc2SCC(=O)Nc2ccc(OCC(=O)NCc3ccc(N)cc3)cc2Cl)c(Cl)c1` [Compound 5026] gave a 50% inhibitory concentration (IC50) of 86 nM. The same measure, in the same setting: the same measure for `CC(C)(C)c1ccc(-n2nnnc2SCC(=O)Nc2ccc(-c3ccc(OCCN4CC[C@H](O)C4)cc3)cc2Cl)c(Cl)c1` [Compound 2042]: 15 nM. `Cc1ccc(-n2nncc2SCC(=O)Nc2ccc(-c3ccc(CC(=O)O)cc3)cc2Cl)c(Cl)c1` [Compound 1005] came in with a concentration for half-maximal inhibition (IC50) of 730 nM. Regarding `CC(C)(C)c1ccc(-n2nnnc2SCC(=O)Nc2ccc(OCC(=O)NCc3ccc(C(=O)O)cc3)cc2Cl)c(Cl)c1` [Compound 5027], half-maximal inhibition (IC50) required 51 nM.

For `Cc1ccc(-n2nnnc2SCC(=O)Nc2ccc(-c3cccc(CC(=O)O)c3)cc2Cl)c(Cl)c1` [Compound 3004], the IC50 was found to be 93 nM. The same measure, in the same setting: the same measure for `CC(C)(C)c1ccc(-n2nnnc2SCC(=O)Nc2ccc(-c3ccc(C(=O)O)s3)cc2Cl)c(Cl)c1` [Compound 3030]: 28 nM; for `Cc1cc(C(F)(F)F)cc(-n2nnnc2SCC(=O)Nc2ccc(-c3ccc(CC(=O)O)cc3)cc2Cl)c1Cl` [Compound 2044]: 29 nM; for `CC(C)(C)c1ccc(-n2nnnc2SCC(=O)Nc2ccc(C(=O)Nc3ccc(CCC(=O)O)cc3)cc2Cl)c(Cl)c1` [Compound 6031]: 29.5 nM. On the same count and under the same terms, with `CC(C)(C)c1ccc(-n2nnnc2SCC(=O)Nc2ccc(-c3ccc(OCCN4CCC(O)CC4)cc3)cc2Cl)c(Cl)c1` [Compound 2031] the figure was 34 nM; with `CC(C)(C#Cc1ccc(NC(=O)CSc2nnc(C(F)(F)F)n2-c2ccc(C3CC3)cc2Cl)c(Cl)c1)NC(=O)c1cc[n+]([O-])cc1` [Compound 1018], 51 nM; with `CC(C)(C)c1ccc(-n2nnnc2SCC(=O)Nc2ccc(OCC(=O)Nc3cccc(C(=O)O)c3)cc2Cl)c(Cl)c1` [Compound 5022], 106 nM.

Turning to `Cc1ccc(-n2nnnc2SCC(=O)Nc2ccc(-c3cccc(C(=O)O)c3)cc2Cl)c(Cl)c1` [Compound 3003], the IC50 stood at 241 nM. Still for that read-out and setting: with `O=C(COc1ccc(NC(=O)CSc2nnnn2-c2ccc(C3CC3)cc2Cl)c(Cl)c1)NCc1cccnc1` [Compound 5033] the figure was 124 nM; with `Cc1ccc(-n2nnnc2SCC(=O)Nc2ccc(-c3csc(N)n3)cc2Cl)c(Cl)c1` [Compound 3015], 185 nM; with `CC(C)(C)c1ccc(-n2nnnc2SCC(=O)Nc2ccc(-c3ccc(/C=C/C(=O)O)s3)cc2Cl)c(Cl)c1` [Compound 3031], 15.5 nM. On the same count and under the same terms, the same measure for `CC(C)(C(=O)O)c1ccc(-c2ccc(NC(=O)CSc3nnnn3-c3ccc(C4CC4)cc3Cl)c(Cl)c2)cc1` [Compound 2052]: 19 nM. Still for that read-out and setting: with `CCN(CC)CCOc1ccc(-c2ccc(NC(=O)CSc3nnnn3-c3ccc(C(C)(C)C)cc3Cl)c(Cl)c2)cc1` [Compound 2024] the figure was 26 nM.

In general, IC50 refers to the concentration at which inhibition is half-maximal.
